According to patent US9802894B2, “α-glucosidase inhibitors” (priority 2015, dated 2017):

Legend:
[1] = biological target: α-Glucosidase from Saccharomyces cervisiae; assay type: biochemical; conditions: in vitro; phosphate buffer pH 6.8, 37° C., substrate 0.7 mM, absorbance at 400 nm; read-out: α-Glucosidase Inhibition (IC50 in μM)
Method: Assay Protocol for α-Glucosidase Inhibition (In Vitro α-Glucosidase Inhibition Assay)
α-Glucosidase inhibition assay was performed spectrophotometrically. α-Glucosidase from Saccharomyces cervisiae was dissolved in phosphate buffer (pH 6.8, 50 mM). Test compounds were dissolved in 70% DMSO. In 96-well plates, 20 μL of test sample, 20 μL of enzyme and 135 μL of buffer were added and incubated for 15 minutes at 37° C. After incubation, 25 μL, of p-nitrophenyl-α-D-glucopyranoside (0.7 mM, Sigma Aldrich) was added and the change in absorbance was monitored for 30 minutes at 400 nm. Test compound was replaced by DMSO (7.5% final) as control. Acarbose (Acarbose, Sigma Aldrich) was used as a standard inhibitor.

Row | Compound | melting point | IC50 [1]
1 | O=C(CC(c1c(Cl)cccc1Cl)c1c[nH]c2ccccc12)c1ccccc1 (stereo not shown) [Compound 3m, 3-(2,6-dichlorophenyl)-3-(1H-indol-3-yl)-1-phenylpropan-1-one] | 119 to 121 °C | 4.3 ± 0.13 µM
2 | COc1ccc([C@H](CC(=O)c2ccc3ccccc3c2)c2c[nH]c3ccccc23)cc1 [Compound 3f, (S)-3-(1H-Indol-3-yl)-3-(4-methoxyphenyl)-1-(naphthalen-2-yl)propan-1-one] | 159 to 162 °C | 15.2 ± 0.58 µM
3 | COc1ccc([C@H](CC(=O)c2ccccc2)c2c[nH]c3ccccc23)cc1 [Compound 3e, (S)-3-(1H-Indol-3-yl)-3-(4-methoxyphenyl)-1-phenylpropan-1-one] | 134 to 136 °C | 27.1 ± 0.69 µM
4 | O=C(C[C@@H](c1ccc(Cl)cc1)c1c[nH]c2ccccc12)c1ccccc1 [Compound 3h, (S)-3-(4-Chlorophenyl)-3-(1H-indol-3-yl)-1-phenylpropan-1-one] | 189 to 192 °C | 37.9 ± 0.86 µM
5 | O=C(CC(c1ccc(Br)cc1)c1c[nH]c2ccccc12)c1ccccc1 (stereo not shown) [Compound 3q, 3-(4-bromophenyl)-3-(1H-indol-3-yl)-1-phenylpropan-1-one] | 95 to 97 °C | 24.9 ± 1.61 µM
6 | Cc1ccc([C@H](CC(=O)c2ccc3ccccc3c2)c2c[nH]c3ccccc23)cc1 [Compound 3j, (S)-3-(1H-Indol-3-yl)-1-(naphthalen-2-yl)-3-(p-tolyl)propan-1-one] | 174 to 177 °C | 18.1 ± 1.9 µM
7 | O=C(CC(c1ccc(Cl)cc1Cl)c1c[nH]c2ccccc12)c1ccccc1 (stereo not shown) [Compound 3l, 3-(2,4-dichlorophenyl)-3-(1H-indol-3-yl)-1-phenylpropan-1-one] | 110 to 112 °C | 15.6 ± 0.17 µM
8 | Cc1cc(C)c([C@H](CC(=O)c2ccc3ccccc3c2)c2c[nH]c3ccccc23)c(C)c1 [Compound 3i, (S)-3-(1H-Indol-3-yl)-3-mesityl-1-(naphthalen-2-yl)propan-1-one] | 227 to 229 °C | 15.1 ± 0.4 µM
9 | O=C(CC(c1cccs1)c1c[nH]c2ccccc12)c1ccc2ccccc2c1 (stereo not shown) [Compound 3o, 3-(1H-indol-3-yl)-1-(naphthalen-2-yl)-3-(thiophen-2-yl)propan-1-one] |  | 11.8 ± 0.06 µM
10 | O=C(CC(c1cccc(Br)c1)c1c[nH]c2ccccc12)c1ccccc1 (stereo not shown) [Compound 3r, 3-(3-bromophenyl)-3-(1H-indol-3-yl)-1-phenylpropan-1-one] | 102 to 104 °C | 33.2 ± 0.75 µM
11 | O=C(C[C@@H](c1ccccc1)c1c[nH]c2ccccc12)c1ccc2ccccc2c1 [Compound 3g, (S)-3-(1H-Indol-3-yl)-1-(naphthalen-2-yl)-3-phenylpropan-1-one] | 166 to 169 °C | 43.9 ± 0.51 µM
12 | O=C(C[C@@H](c1ccc(Cl)cc1)c1c[nH]c2ccccc12)c1ccc2ccccc2c1 [Compound 3b, (S)-3-(4-Chlorophenyl)-3-(1H-indol-3-yl)-1-(naphthalen-2-yl)propan-1-one] | 237 to 241 °C | 17.6 ± 0.98 µM
13 | Cc1ccc([C@H](CC(=O)c2ccccc2)c2c[nH]c3ccccc23)cc1 [Compound 3d, (S)-3-(1H-Indol-3-yl)-1-phenyl-3-(p-tolyl)propan-1-one] | 153 to 155 °C | 24 ± 4 µM
14 | Cc1cccc(C(CC(=O)c2ccccc2)c2c[nH]c3ccccc23)c1 (stereo not shown) [Compound 3n, 3-(1H-indol-3-yl)-1-phenyl-3-(m-tolyl)propan-1-one] | 130 to 132 °C | 26.3 ± 0.48 µM
15 | O=C(C[C@@H](c1cccs1)c1c[nH]c2ccccc12)c1ccccc1 [Compound 3k, (R)-3-(1H-Indol-3-yl)-1-phenyl-3-(thiophen-2-yl)propan-1-one] | 112 to 115 °C | 21.8 ± 0.25 µM
16 | O=C(CC(c1cccc([N+](=O)[O-])c1)c1c[nH]c2ccccc12)c1ccccc1 (stereo not shown) [Compound 3p, 3-(1H-indol-3-yl)-3-(3-nitrophenyl)-1-phenylpropan-1-one] | 105 to 107 °C | 34.6 ± 1.55 µM
17 | Cc1cc(C)c([C@H](CC(=O)c2ccccc2)c2c[nH]c3ccccc23)c(C)c1 [Compound 3c, (S)-3-(1H-Indol-3-yl)-3-mesityl-1-phenylpropan-1-one] | 169 to 171 °C | 25.2 ± 1.96 µM
18 | O=C(C[C@@H](c1ccccc1)c1c[nH]c2ccccc12)c1ccccc1 [Compound 3a, (S)-3 (1H-Indol-3-yl)-1,3-diphenylpropan-1-one] |  | 43.3 ± 0.92 µM
